Measured values published in US12565494B2, “Inhibitors of human respiratory syncytial virus and metapneumovirus” (priority 2022, dated 2026).
Like-named read-outs stand apart in the source and are kept apart here.

Tests used:
[1] = system: RSV-A2-GFP virus; assay: microbe, parasite or virus in culture; assay type: cell-based, Human Respiratory Syncytial Virus; conditions: Calu-1 cells, RSV-A2-GFP MOI=1.2, 96 hrs, GFP-expressing cells counted
How it was run: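 Assay-ready frozen Calu-1 cells (20,000 cells/mL) were infected with RSV-A2-GFP at MOI 1.2 in DMEM with 2% FBS and exposed to a 10-point 3-fold compound dilution for 96 h at 37 °C. GFP-positive cells were counted by imaging, with same-well CellTiter-Glo for cytotoxicity. IC50 and CC50 came from 4-parameter logistic fits.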

[2] = system: hMPV-GFP virus; assay: microbe, parasite or virus in culture; assay type: cell-based, Human Metapneumovirus; conditions: VERO cells, hMPV-GFP MOI=1.25, 48 hrs, GFP-expressing cells counted
How it was run: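 VERO cells infected with GFP-expressing hMPV at MOI 1.25 and exposed to compound in 10-point 3-fold dilutions (typical final 40,300–2 nM) for 48 h at 37 °C. GFP-positive cells counted by imaging; same-well CellTiter-Glo for cytotoxicity. IC50 and CC50 from 4-parameter logistic fits.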

[3] = human respiratory syncytial virus, Calu-1, 96 h, read-out: RSV EC50, Table I Summary of Activities for RSV
[4] = Table I Summary of Activities for RSV, read-out: RSV EC50
[5] = Table II Summary of Activities for hMPV, read-out: RSV EC50
[6] = Vero, 48 h, read-out: RSV EC50, Table II Summary of Activities for hMPV

`CC(O)c1nc(-c2cscn2)sc1C(=O)N1C[C@@H]2[C@H](C1)[C@H]2Oc1cc(C(C)(C)N)cc(-c2ccc(F)cc2)n1` (single isomer, unassigned; enantiomer 1) [Example 16A] gave an EC50 [1, 3] of less than 10 nM and an EC50 ([2]; read-out: RSV EC50, Table II Summary of Activities for hMPV) of 10 to 100 nM.

`CC(C)(N)c1cc(O[C@H]2[C@@H]3CN(C(=O)c4sc(-c5ncco5)nc4C(F)F)C[C@@H]32)nc(-c2ccc(F)cc2)c1` [Example 15, ((1R,5S,6s)-6-((4-(2-aminopropan-2-yl)-6-(4-fluorophenyl)pyridin-2-yl)oxy)-3-azabicyclo[3.1.0]hexan-3-yl)(4-(difluoromethyl)-2-(oxazol-2-yl)thiazol-5-yl)methanone] showed an EC50 [1, 4] of less than 10 nM and an EC50 [2, 5] greater than 100 nM.

For `Cc1nc(-c2cscn2)sc1C(=O)N1C[C@@H]2[C@H](C1)[C@H]2Oc1cc(C(C)(C)N)cc(-c2ccc(F)cc2F)n1` [Example 33, ((1R,5S,6s)-6-((4-(2-aminopropan-2-yl)-6-(2,4-difluorophenyl)pyridin-2-yl)oxy)-3-azabicyclo[3.1.0]hexan-3-yl)(4-methyl-[2,4′-bithiazol]-5-yl)methanone], the EC50 [1, 4] was less than 10 nM and the EC50 [2, 5] was greater than 100 nM.

Molecule `Cn1nc(-c2cscn2)cc1C(=O)N1C[C@@H]2[C@H](C1)[C@H]2Oc1cc(-c2ccc(F)cc2)cc(C(C)(C)N)n1` [Example 59, ((1R,5S,6s)-6-((6-(2-aminopropan-2-yl)-4-(4-fluorophenyl)pyridin-2-yl)oxy)-3-azabicyclo[3.1.0]hexan-3-yl)(1-methyl-3-(thiazol-4-yl)-1H-pyrazol-5-yl)methanone] has an EC50 [1, 3] of less than 10 nM and an EC50 [2, 6] greater than 100 nM.

`Cn1nc(-c2cscn2)cc1C(=O)N1C[C@@H]2[C@H](C1)[C@H]2Oc1cc(C(N)=O)cc(-c2ccc(F)cc2)n1` [Example 47, 2-(4-fluorophenyl)-6-(((1R,5S,6s)-3-(1-methyl-3-(thiazol-4-yl)-1H-pyrazole-5-carbonyl)-3-azabicyclo[3.1.0]hexan-6-yl)oxy)isonicotinamide] was tested, and the EC50 [1, 3] was less than 10 nM and the EC50 [2, 6] was greater than 100 nM.

Work on `Cn1nc(-c2cscn2)cc1C(=O)N1C[C@@H]2[C@H](C1)[C@H]2Oc1cc(C(C)(C)N)cc(-n2cc(C3CC3)cn2)n1` [Example 38, ((1R,5S,6s)-6-((4-(2-aminopropan-2-yl)-6-(4-cyclopropyl-1H-pyrazol-1-yl)pyridin-2-yl)oxy)-3-azabicyclo[3.1.0]hexan-3-yl)(1-methyl-3-(thiazol-4-yl)-1H-pyrazol-5-yl)methanone] yielded an EC50 [1, 4] of less than 10 nM and an EC50 [2, 5] greater than 100 nM.

For `Cn1nc(-c2ncco2)cc1C(=O)N1C[C@@H]2[C@H](C1)[C@H]2Oc1cc(C(C)(C)N)cc(-c2ccc(F)cc2)n1` [Example 17, ((1R,5S,6s)-6-((4-(2-aminopropan-2-yl)-6-(4-fluorophenyl)pyridin-2-yl)oxy)-3-azabicyclo[3.1.0]hexan-3-yl)(1-methyl-3-(oxazol-2-yl)-1H-pyrazol-5-yl)methanone], the EC50 [1, 3] was less than 10 nM and the EC50 [2, 6] was 10 to 100 nM.

`Cn1nc(-c2ncco2)cc1C(=O)N1C[C@@H]2[C@H](C1)[C@H]2Oc1cc(C(C)(C)N)cc(-c2ccc3c(c2)CC3(F)F)n1` [Example 35, ((1R,5S,6s)-6-((4-(2-aminopropan-2-yl)-6-(7,7-difluorobicyclo[4.2.0]octa-1(6),2,4-trien-3-yl)pyridin-2-yl)oxy)-3-azabicyclo[3.1.0]hexan-3-yl)(1-methyl-3-(oxazol-2-yl)-1H-pyrazol-5-yl)methanone] showed an EC50 [1, 4] of less than 10 nM and an EC50 [2, 5] greater than 100 nM.

`Cn1nc(-c2cscn2)cc1C(=O)N1C[C@H]2[C@H](Oc3cc(C(C)(C)N)cc(-c4ccc(F)cc4)n3)[C@@]2(C)C1` (single isomer, unassigned; enantiomer 2) [Example 43B] showed an EC50 [1, 3] of less than 10 nM and an EC50 [2, 6] greater than 100 nM.

`Cn1nc(-c2ccon2)cc1C(=O)N1C[C@@H]2[C@H](C1)[C@H]2Oc1cc(C(C)(C)N)cc(-c2ccc(F)cc2)n1` [Example 21, ((1R,5S,6s)-6-((4-(2-aminopropan-2-yl)-6-(4-fluorophenyl)pyridin-2-yl)oxy)-3-azabicyclo[3.1.0]hexan-3-yl)(3-(isoxazol-3-yl)-1-methyl-1H-pyrazol-5-yl)methanone] gave an EC50 [1, 3] of less than 10 nM and an EC50 [2, 6] greater than 100 nM.

In the case of `CC(C)(N)c1cc(O[C@H]2[C@@H]3CN(C(=O)c4sc(-c5cscn5)nc4C4CC4)C[C@@H]32)nc(-c2ccc(F)cc2F)c1` [Example 34, ((1R,5S,6s)-6-((4-(2-aminopropan-2-yl)-6-(2,4-difluorophenyl)pyridin-2-yl)oxy)-3-azabicyclo[3.1.0]hexan-3-yl)(4-cyclopropyl-[2,4′-bithiazol]-5-yl)methanone], the EC50 [1, 4] is reported as less than 10 nM and the EC50 [2, 5] is reported as 10 to 100 nM.

`Cc1nc(-c2nccs2)sc1C(=O)N1C[C@@H]2[C@H](C1)[C@H]2Oc1cc(C(C)(C)N)cc(-c2ccc(F)cc2)n1` [Example 6, ((1R,5S,6s)-6-((4-(2-aminopropan-2-yl)-6-(4-fluorophenyl)pyridin-2-yl)oxy)-3-azabicyclo[3.1.0]hexan-3-yl)(4-methyl-[2,2′-bithiazol]-5-yl)methanone] gave an EC50 [1, 4] of less than 10 nM and an EC50 [2, 5] greater than 100 nM.

In the case of `Cn1nc(-c2ncco2)cc1C(=O)N1C[C@@H]2C(Oc3cc(C(C)(N)CO)cc(-c4ccc(F)cc4)n3)[C@@H]2C1` (single isomer, unassigned; enantiomer 2) [Example 58B], the EC50 [1, 4] is reported as less than 10 nM and the EC50 [2, 5] is reported as greater than 100 nM.

For `Cn1nc(-c2cscn2)cc1C(=O)N1C[C@@H]2[C@H](C1)[C@H]2Oc1cc(C2(C)CCNC2=O)cc(-c2ccc(F)cc2)n1` (single isomer, unassigned; ent-3) [Example 51A], the EC50 [1, 3] was less than 10 nM and the EC50 [2, 6] was greater than 100 nM.

With `Cn1nc(-c2cscn2)cc1C(=O)N1C[C@H]2[C@H](Oc3cc(C(C)(C)N)cc(-c4ccc(F)cc4)n3)[C@@]2(C)C1` (single isomer, unassigned; enantiomer 1) [Example 43A] the EC50 [1, 3] was less than 10 nM and the EC50 [2, 6] was 10 to 100 nM.

With `Cn1nc(-c2ncco2)cc1C(=O)N1C[C@H]2[C@H](Oc3cc(C(C)(C)N)cc(-c4ccc(F)cc4)n3)[C@@]2(C)C1` (single isomer, unassigned; enantiomer 1) [Example 44A] the EC50 [1, 3] was less than 10 nM and the EC50 [2, 6] was 10 to 100 nM.

For `Cc1nc(-c2ccon2)sc1C(=O)N1C[C@@H]2[C@H](C1)[C@H]2Oc1cc(C(C)(C)N)cc(-c2ccc(F)cc2F)n1` [Example 32, ((1R,5S,6s)-6-((4-(2-aminopropan-2-yl)-6-(2,4-difluorophenyl)pyridin-2-yl)oxy)-3-azabicyclo[3.1.0]hexan-3-yl)(2-(isoxazol-3-yl)-4-methylthiazol-5-yl)methanone], the EC50 [1, 4] was less than 10 nM and the EC50 [2, 5] was greater than 100 nM.

`Cn1nc(-n2cccn2)cc1C(=O)N1C[C@@H]2[C@H](C1)[C@H]2Oc1cc(C(C)(C)N)cc(-c2ccc(F)cc2)n1` [Example 67, ((1R,5S,6s)-6-((4-(2-aminopropan-2-yl)-6-(4-fluorophenyl)pyridin-2-yl)oxy)-3-azabicyclo[3.1.0]hexan-3-yl)(1′-methyl-1′H-[1,3′-bipyrazol]-5′-yl)methanone] gave an EC50 [1, 3] of less than 10 nM and an EC50 [2, 6] greater than 100 nM.

In the case of `CC(N)c1cc(O[C@H]2[C@@H]3CN(C(=O)c4cc(-c5ccon5)nn4C)C[C@@H]32)nc(-c2ccc(F)cc2)c1` (single isomer, unassigned; enantiomer 1) [Example 62A], the EC50 [1, 3] is reported as less than 10 nM and the EC50 [2, 6] is reported as greater than 100 nM.

Work on `Cn1nc(-c2cscn2)cc1C(=O)N1C[C@@H]2C(Oc3cc(C(C)(N)CO)cc(-c4ccc(F)cc4)n3)[C@@H]2C1` (single isomer, unassigned; enantiomer 2) [Example 57B] yielded an EC50 [1, 4] of less than 10 nM and an EC50 [2, 5] greater than 100 nM.
